# Measured values: patent publication US20160129089A1, “COMBINATION THERAPY” (ANTISENSE THERAPEUTICS LTD, priority 2013, published 2016)
# e = 2'-O-(2-methoxyethyl) (MOE); d = 2'-deoxy (DNA)
# Tested on: human growth hormone receptor mRNA
# Test: Inhibition of human growth hormone receptor mRNA levels by antisense oligonucleotides, quantitative real-time PCR, MCF7 cells
# Format: cell-based
# Parameters: concentration or dose not given beside the values
# Conditions: averages from three experiments
# Procedure: “Target site” indicates the first (5′-most) nucleotide number on the particular target sequence to which the oligonucleotide binds. “% Inhib” indicates the inhibitory effect on hGHR mRNA levels by quantitative real-time PCR. Data are averages from three experiments in which MCF7 cells were treated with the antisense oligonucleotides.
# All oligonucelotides in Table 1 are chimeric oligonucleotides (“gapmers”), 20 nucleotides in length, composed of a central “gap” region consisting of ten 2′-deoxynucleotides, which is flanked on both sides (5′ and 3′ directions) by five-nucleotide “wings”. The wings are composed of 2′-methoxyethyl (2′-MOE) nucleotides. The internucleoside (backbone) linkages are phosphorothioate (P═S) throughout the oligonucleotide. All uracils are 5-methyluracils (^MeU). Typically, the oligonucleotide is synthesized using 2-methoxyethyl modified thymidines not 5-methyluracils. All pyrimidines are C5 methylated (i.e., U, T, C are C5 methylated).
row,Substance,% INHIB (inhibitory effect on hGHR mRNA levels) [%]
1,"272353 (antisense ATAATGGCTTATGTGGCCAC; sugars from the 5' end e5 d10 e5, all phosphorothioate, methylation of C not given here) [compound 272353]",72
2,"272311 (antisense TTGCACTATTTCATCAACAG; sugars from the 5' end e5 d10 e5, all phosphorothioate, methylation of C not given here) [compound 272311]",47
3,"227488 (antisense AGTTGGTCTGTGCTCACATA; sugars from the 5' end e5 d10 e5, all phosphorothioate, methylation of C not given here) [compound 227488]",86
4,"227464 (antisense CCTTTAATCTTTGGAACTGG; sugars from the 5' end e5 d10 e5, all phosphorothioate, methylation of C not given here) [compound 227464]",58
5,"272333 (antisense GTGCTCACATAGCCACATGA; sugars from the 5' end e5 d10 e5, all phosphorothioate, methylation of C not given here) [compound 272333]",72
6,"272329 (antisense ACTTTTTGGCATCTGCCTCA; sugars from the 5' end e5 d10 e5, all phosphorothioate, methylation of C not given here) [compound 272329]",63
7,"227468 (antisense TCATCAATATCTAGCTCAAT; sugars from the 5' end e5 d10 e5, all phosphorothioate, methylation of C not given here) [compound 227468]",62
8,"272320 (antisense AGATTGTGTTCACCTCCTCT; sugars from the 5' end e5 d10 e5, all phosphorothioate, methylation of C not given here) [compound 272320]",70
9,"227500 (antisense CATAGCAGCAAAGTAGCAGA; sugars from the 5' end e5 d10 e5, all phosphorothioate, methylation of C not given here) [compound 227500]",69
10,"227483 (antisense AGGCTTTCTGTGGTGATGTA; sugars from the 5' end e5 d10 e5, all phosphorothioate, methylation of C not given here) [compound 227483]",75
11,"227499 (antisense TATAAAAGGGCTTTGTAAAA; sugars from the 5' end e5 d10 e5, all phosphorothioate, methylation of C not given here) [compound 227499]",14
12,"227502 (antisense GATTGAGGTATTTAGCTATT; sugars from the 5' end e5 d10 e5, all phosphorothioate, methylation of C not given here) [compound 227502]",56
13,"272307 (antisense GTGAATTTAGGCTCCTTAGA; sugars from the 5' end e5 d10 e5, all phosphorothioate, methylation of C not given here) [compound 272307]",55
14,"272352 (antisense CCAAAATGACATTCTGAGAC; sugars from the 5' end e5 d10 e5, all phosphorothioate, methylation of C not given here) [compound 272352]",77
15,"227475 (antisense CCTGCTGGTGTAATGTCGCT; sugars from the 5' end e5 d10 e5, all phosphorothioate, methylation of C not given here) [compound 227475]",68
16,"227484 (antisense TGGTAAGGCTTTCTGTGGTG; sugars from the 5' end e5 d10 e5, all phosphorothioate, methylation of C not given here) [compound 227484]",63
17,"272321 (antisense AACCCAAGAGTCATCACTGT; sugars from the 5' end e5 d10 e5, all phosphorothioate, methylation of C not given here) [compound 272321]",64
18,"227490 (antisense GCATGATTTTGTTCAGTTGG; sugars from the 5' end e5 d10 e5, all phosphorothioate, methylation of C not given here) [compound 227490]",67

row,Substance,% INHIB (inhibitory effect on hGHR mRNA levels) [%]
1,"272331 (antisense CAGTCGCATTGAGTATGAGG; sugars from the 5' end e5 d10 e5, all phosphorothioate, methylation of C not given here) [compound 272331]",67
2,"227501 (antisense GCTATTTTTGGCTATAGAAA; sugars from the 5' end e5 d10 e5, all phosphorothioate, methylation of C not given here) [compound 227501]",64
3,"272357 (antisense TAGGGTCCATCTTTCAAGAC; sugars from the 5' end e5 d10 e5, all phosphorothioate, methylation of C not given here) [compound 272357]",62
4,"272336 (antisense CAATCACTGCTACTAAACAG; sugars from the 5' end e5 d10 e5, all phosphorothioate, methylation of C not given here) [compound 272336]",69
5,"272309 (antisense TAACAGCTGTTTTCCCCAGC; sugars from the 5' end e5 d10 e5, all phosphorothioate, methylation of C not given here) [compound 272309]",85
6,"272358 (antisense TCTCCAGATAGAATCTAAAC; sugars from the 5' end e5 d10 e5, all phosphorothioate, methylation of C not given here) [compound 272358]",53
7,"272338 (antisense GTGCTATGGTTTGCATTCAA; sugars from the 5' end e5 d10 e5, all phosphorothioate, methylation of C not given here) [compound 272338]",78
8,"272312 (antisense GGGTGGATCTGGTTGCACTA; sugars from the 5' end e5 d10 e5, all phosphorothioate, methylation of C not given here) [compound 272312]",57
9,"272339 (antisense GTTTTACATATCCAAACTAT; sugars from the 5' end e5 d10 e5, all phosphorothioate, methylation of C not given here) [compound 272339]",72
10,"272317 (antisense AGCCCAAATATTCCAAAGAT; sugars from the 5' end e5 d10 e5, all phosphorothioate, methylation of C not given here) [compound 272317]",65
11,"272341 (antisense GAGGCTATAGATCTTATCTC; sugars from the 5' end e5 d10 e5, all phosphorothioate, methylation of C not given here) [compound 272341]",65
12,"272350 (antisense AGGCTGTTGTGAAATAGTAA; sugars from the 5' end e5 d10 e5, all phosphorothioate, methylation of C not given here) [compound 272350]",67
13,"272351 (antisense ATAGAAATGTTGTCAGGCTG; sugars from the 5' end e5 d10 e5, all phosphorothioate, methylation of C not given here) [compound 272351]",57
14,"272361 (antisense ATTTTCCTTCCTAGAAAATA; sugars from the 5' end e5 d10 e5, all phosphorothioate, methylation of C not given here) [compound 272361]",10
15,"272348 (antisense CACAGCTTTGAATTGAATTA; sugars from the 5' end e5 d10 e5, all phosphorothioate, methylation of C not given here) [compound 272348]",57
16,"272323 (antisense TGTGTCTGATTCCTCAGTCT; sugars from the 5' end e5 d10 e5, all phosphorothioate, methylation of C not given here) [compound 272323]",67
17,"272340 (antisense CATCAACCAAGATTTGGTGA; sugars from the 5' end e5 d10 e5, all phosphorothioate, methylation of C not given here) [compound 272340]",69
18,"272355 (antisense TTGAGTGTTCCTAAAATGAA; sugars from the 5' end e5 d10 e5, all phosphorothioate, methylation of C not given here) [compound 272355]",24
